Assays:
FmlH = FmlH (Escherichia coli, UniProt A0A0H2V7F6); experiment: ELISA of FmlH lectin domain binding with TF antigen as competitive ligand; set-up: species or system uropathogenic Escherichia coli (UPEC); conditions: for loss of activity relative to parent compound I: FmlH ELISA IC50 ratio
[1] = In vivo pharmacokinetics in mice; conditions: mice plasma PK
Mouse pharmacokinetics = assay type: in vivo, C3H/HeN mice; conditions: mice, PO
[2] = cited from earlier work
[3] = rats; cited from earlier work

## CC(=O)N[C@H]1[C@H](Oc2cccc(C(F)(F)F)c2-c2cccc(CS(C)(=O)=O)c2)O[C@H](CO)[C@H](O)[C@@H]1O [Compound 9]
FmlH
  loss of activity relative to parent compound I: ~ 10 fold

## CC(=O)N[C@H]1[C@H](Oc2cccc(C(F)(F)F)c2-c2cccc(C(=O)NS(C)(=O)=O)c2)O[C@H](CO)[C@H](O)[C@@H]1O [Compound 11]
FmlH
  loss of activity relative to parent compound I: ~ 10 fold

## CS(=O)(=O)Nc1cccc(-c2ccccc2C[C@@H]2O[C@H](CO)[C@H](O)[C@H](O)[C@H]2F)c1 [Compound 28]
FmlH; FmlH ELISA, relative to 27
  improvement of potency on replacing 2-position OH with F: 2 fold

## CS(=O)(=O)Nc1cccc(-c2ccccc2C[C@@H]2O[C@H](CO)[C@H](O)[C@H](O)[C@H]2[N+](=O)[O-])c1 [Compound 34]
FmlH; FmlH ELISA, average of four replicates
  IC50: all activity against FmlH was eliminated

## CC(=O)N[C@H]1[C@H](Oc2cccc(C(F)(F)F)c2-c2ccc(F)cc2)O[C@H](CO)[C@H](O)[C@@H]1O [Compound 69]
[1]
  AUC relative to 67: ~4 fold
Mouse pharmacokinetics
  urine concentration relative to FmlH IC50: over 300 fold
Mouse pharmacokinetics; high urine concentration quoted in the conclusion
  urine concentration achieved: 61 µM

## CC(=O)N[C@H]1[C@H](Oc2cccc(C(F)(F)F)c2-c2cccc(NS(C)(=O)=O)c2)O[C@H](CO)[C@H](O)[C@@H]1O [I]
[2]; SGF, SIF, mouse liver microsomes, blood plasma
  metabolic stability: good metabolic stability
[2]
  stability in plasma and simulated gut and intestinal fluids: good stability
[3]
  oral bioavailability (F): < 1%

Reference: article PMC10994195 (Journal of medicinal chemistry, 2024)
